Tests used:
m17β-HSD2 = target: T1, m17β-HSD2 (Mus musculus, UniProt P51658); test: Inhibition of m17β-HSD2 in cell-free assay; format: biochemical; details: for inhibition at 1 µM: read-out: % inh. at 1 μM m17β-HSD2; for % inh. at 1 μM m17β-HSD2: mouse liver microsomal fraction, substrate E2 [500 nM], cofactor NAD+ [1500 μM], Table 1
T1 construct: The microsomal fraction (m17β-HSD2) was obtained from mouse liver as described for h17β-HSD2; tissue Pharmacelsus GmbH (mouse livers); host or cells: mouse liver, microsomal fraction
T1 sequence (P51658 1-381): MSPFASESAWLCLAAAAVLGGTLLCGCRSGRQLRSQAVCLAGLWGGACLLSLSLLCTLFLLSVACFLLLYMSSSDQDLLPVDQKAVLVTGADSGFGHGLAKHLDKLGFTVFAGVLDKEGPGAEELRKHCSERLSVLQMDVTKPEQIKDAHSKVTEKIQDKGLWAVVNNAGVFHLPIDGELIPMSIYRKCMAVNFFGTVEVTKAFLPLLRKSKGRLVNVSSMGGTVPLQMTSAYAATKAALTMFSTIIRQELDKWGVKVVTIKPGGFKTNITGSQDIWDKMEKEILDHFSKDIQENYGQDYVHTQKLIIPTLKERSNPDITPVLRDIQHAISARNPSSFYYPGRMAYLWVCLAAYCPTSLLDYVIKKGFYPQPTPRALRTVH
Experimental: (§1) h17β-HSD2, h17β-HSD1, m17β-HSD2 and m17β-HSD1 cell-free assays were performed similarly, by incubating enzyme, tritiated substrate, cofactor and inhibitor, according to described procedures.
The microsomal fraction (m17β-HSD2) was obtained from mouse liver as described for h17β-HSD2. Inhibitory activities were evaluated by a method identical to the one described for the human enzyme.
(§2) Inhibitory activities were evaluated following an established method with minor modifications. Briefly, the enzyme preparation was incubated with NAD^+ [1500 μM] in the presence of potential inhibitors at 37C in a phosphate buffer (50 mM) supplemented with 20% of glycerol and EDTA 1mM. Inhibitor stock solutions were prepared in DMSO. Final concentration of DMSO was adjusted to 1% in all samples. […] After 20 min, the incubation was stopped with HgCl2 and the mixture was extracted with ether. After evaporation, the steroids were dissolved in acetonitrile/water (45:55). […] Detection and quantification of the steroids were performed using a radioflow detector (Berthold Technologies, Bad Wildbad). […] Each value was calculated from at least two independent experiments.

h17β-HSD2 = target: T2, h17β-HSD2 (Homo sapiens, UniProt P37059); test: Inhibition of h17β-HSD2 in cell-free assay; format: biochemical; set-up: from tissue; host or cells: human placenta, microsomal fraction; details: for inhibition at 1 µM: read-out: % inh. at 1 μM h17β-HSD2; for s.f. (selectivity factor) = IC50(17β-HSD1)/IC50(17β-HSD2): human enzymes, cell-free
T2 sequence (P37059 1-387): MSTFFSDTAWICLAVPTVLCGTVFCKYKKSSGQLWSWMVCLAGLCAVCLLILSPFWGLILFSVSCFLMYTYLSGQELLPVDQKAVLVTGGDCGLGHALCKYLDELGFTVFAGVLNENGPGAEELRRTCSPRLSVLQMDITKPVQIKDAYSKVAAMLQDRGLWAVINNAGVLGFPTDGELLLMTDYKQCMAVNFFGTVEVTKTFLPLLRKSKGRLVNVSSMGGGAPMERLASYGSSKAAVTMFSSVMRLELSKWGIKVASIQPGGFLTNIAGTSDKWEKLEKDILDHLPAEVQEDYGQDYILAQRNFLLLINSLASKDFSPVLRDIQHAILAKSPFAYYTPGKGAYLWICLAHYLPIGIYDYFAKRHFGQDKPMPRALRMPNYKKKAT
Experimental: as §1
(§3) Cytosolic (h17β-HSD1) and microsomal (h17β-HSD2) fractions were obtained from human placenta according to previously described procedures. Fresh tissue was homogenized and the enzymes were separated from the mitochondria, cell membrane. Nucleus and other rests by fractional centrifugation at 1000 g, 10.000 g and 150.000 g. The pellet fraction containing the microsomal h17β-HSD2 was used for the determination of h17β-HSD2 inhibition, while h17β-HSD1 was obtained after precipitation with ammonium sulfate from the cytosolic fraction for use of testing of h17β-HSD1 inhibition. Aliquots containing h17β-HSD1 or h17β-HSD2 were stored frozen.
as §2

h17β-HSD1 = target: T3, h17β-HSD1 (Homo sapiens, UniProt P14061); test: Inhibition of h17β-HSD1 in cell-free assay; format: biochemical; details: human placental cytosolic fraction, substrate E1 [500 nM], cofactor NADH [500 μM]; for inhibition at 1 µM: read-out: % inh. at 1 μM h17β-HSD1
T3 construct: h17β-HSD1 was obtained after precipitation with ammonium sulfate from the cytosolic fraction; from tissue; host or cells: human placenta, cytosolic fraction
T3 sequence (P14061 1-328): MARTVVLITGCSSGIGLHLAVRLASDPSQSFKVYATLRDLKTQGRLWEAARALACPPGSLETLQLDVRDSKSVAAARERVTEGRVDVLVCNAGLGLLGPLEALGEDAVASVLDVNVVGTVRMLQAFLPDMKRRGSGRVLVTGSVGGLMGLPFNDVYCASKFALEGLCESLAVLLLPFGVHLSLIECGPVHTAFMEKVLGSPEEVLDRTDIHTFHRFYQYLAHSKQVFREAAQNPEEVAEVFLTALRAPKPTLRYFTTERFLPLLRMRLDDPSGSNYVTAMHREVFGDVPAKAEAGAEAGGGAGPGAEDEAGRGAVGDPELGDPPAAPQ
Experimental: as §1, §3
(§4) The 17β-HSD1 inhibition assay was performed similarly to the h17β-HSD2 test. The human cytosolic enzyme was incubated with NADH [500 μM] while the mouse recombinant enzyme was reacted with NADPH [500 μM].Test compound and a mixture of unlabelled- and [^3H]-E1 (final concentration: 500 nM, 0.15 μCi) were added and mixed for 10 min at 37°C. Further treatment of the samples and HPLC separation was carried out as mentioned above for h17β-HSD2.

m17β-HSD1 = target: T4, m17β-HSD1 (Mus musculus, UniProt P51656); test: Inhibition of m17β-HSD1 in cell-free assay; format: biochemical; details: recombinant m17β-HSD1, substrate E1 [500 nM], NADPH [500 μM]
T4 construct: host or cells: HEK 293 cells, transient transfection, 1000 g supernatant of the lysate
T4 sequence (P51656 1-344): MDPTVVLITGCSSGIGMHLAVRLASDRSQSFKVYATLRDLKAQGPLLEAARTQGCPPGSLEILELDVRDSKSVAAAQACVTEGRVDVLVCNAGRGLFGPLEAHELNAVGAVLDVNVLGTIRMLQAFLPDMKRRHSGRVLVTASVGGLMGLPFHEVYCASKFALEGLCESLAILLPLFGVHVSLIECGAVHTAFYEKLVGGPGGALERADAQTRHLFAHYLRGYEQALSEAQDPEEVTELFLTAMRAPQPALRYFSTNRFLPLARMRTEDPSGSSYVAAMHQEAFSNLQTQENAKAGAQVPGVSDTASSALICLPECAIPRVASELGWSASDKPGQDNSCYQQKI
Experimental: as §1
Recombinant m17β-HSD1 enzyme was produced by transfection of HEK 293 cells with a m17β-HSD1 expression plasmid (coding sequence of NM_010475 in pCMV6Entry vector, OriGene Technologies, Inc.) according to a described procedure. 48 hours after transfection cells were homogenized by sonication (3 x 10 s) in a buffer containing saccharose (40 mMTris, 250 mM saccharose, 5 mM EDTA, 7 mM DTT, 1 mM PMSF, pH 7,5). Cell lysate was centrifuged (1000 g, 15 min, 4°C) and 20% glycerol was added to the supernatant before aliquots were frozen and stored at -70°C.
as §4

| SMILES | inhibition at 1 µM (m17β-HSD2) [%] | inhibition at 1 µM (h17β-HSD2) [%] | inhibition at 1 µM (h17β-HSD1) [%] | % inh. at 1 μM m17β-HSD2 (m17β-HSD2) | other results |
| --- | --- | --- | --- | --- | --- |
| COc1cccc(N(C)C(=O)c2ccc(-c3ccc4c(c3)OCO4)cc2)c1 [Compound 22a, 4-(Benzo[d][1, 3]dioxol-5-yl)-N-(3-methoxyphenyl)-N-methylbenzamide] | 56 | 51 | < 10 | – | melting point: 139 to 141 °C |
| COc1cccc(N(C)C(=O)c2ccc(-c3ccc(OC)c(OC)c3)cc2)c1 [Compound 16a, 3',4'-Dimethoxy-N-(3-methoxyphenyl)-N-methyl-[1,1'-biphenyl]-4-carboxamide] | 52 | – | – | – | IC50 (h17β-HSD2): 520 nM; s.f. (selectivity factor) = IC50(17β-HSD1)/IC50(17β-HSD2) (h17β-HSD2): 164; IC50 (h17β-HSD1): 85.5 µM; melting point: 153 to 156 °C |
| COc1cccc(N(C)C(=O)c2ccc(-c3ccccc3OC)s2)c1 [Compound 1d] | – | – | – | 19% | – |
| CN(Cc1cccc(O)c1)C(=O)c1cccc(-c2ccc(O)cc2)c1 [Compound 4f] | – | – | – | 22% | – |
| COc1cccc(CN(C)C(=O)c2cccc(-c3cccc(OC)c3)c2)c1 [Compound 4d] | – | – | – | n.i. (n.i.: no inhibition, i.e., inhibition ≤10%) | – |
| COc1cccc(N(C)C(=O)c2ccc(-c3ccccc3OC)cc2)c1 [Compound 9a, 2'-Methoxy-N-(3-methoxyphenyl)-N-methyl-[1,1'-biphenyl]-4-carboxamide] | 33 | 50 | < 10 | – | – |
| COc1cccc(N(C)C(=O)c2ccc(-c3ccccc3)cc2)c1 [Compound 8a, N-(3-methoxyphenyl)-N-methyl-[1,1'-biphenyl]-4-carboxamide] | 48 | 51 | 22 | – | melting point: 102 to 104 °C |
| CN(C(=O)c1ccc(-c2cccc(O)c2)cc1)c1cccc(O)c1 [Compound 7, 3'-Hydroxy-N-(3-hydroxyphenyl)-N-methyl-[1,1'-biphenyl]-4-carboxamide] | 42 | 36 | 15 | – | melting point: 168 to 171 °C |
| CN(C(=O)c1ccc(-c2ccccc2O)s1)c1cccc(O)c1 [Compound 1f] | – | – | – | 18% | – |
| COc1cccc(N(C)C(=O)c2ccc(-c3cccc(F)c3)cc2)c1 [Compound 13a, 3'-Fluoro-N-(3-methoxyphenyl)-N-methyl-[1,1'-biphenyl]-4-carboxamide] | 57 | – | – | – | IC50 (h17β-HSD2): 1000 nM; s.f. (selectivity factor) = IC50(17β-HSD1)/IC50(17β-HSD2) (h17β-HSD2): 8; IC50 (h17β-HSD1): 8 µM; melting point: 97 to 100 °C |
| COc1cccc(N(C)C(=O)c2ccc(-c3cccc(F)c3)s2)c1 [Compound 1h] | – | – | – | n.i. (n.i.: no inhibition, i.e., inhibition ≤10%) | – |
| COc1cccc(C(=O)N(C)c2ccc(-c3cccc(OC)c3)cc2)c1 [Compound 24a, 3-Methoxy-N-(3'-methoxy-[1,1'-biphenyl]-4-yl)-N-methylbenzamide] | – | 11 | < 10 | – | – |
| COc1ccc(N(C)C(=O)c2ccc(-c3cccc(OC)c3)cc2)cc1 [Compound 11a, 3'-Methoxy-N-(4-methoxyphenyl)-N-methyl-[1,1'-biphenyl]-4-carboxamide] | 58 | 27 | < 10 | – | – |
| COc1ccc(-c2cccc(C(=O)N(C)c3cccc(OC)c3)c2)cc1 [Compound 4b] | – | – | – | 11% | – |
| Cc1cccc(-c2ccc(C(=O)N(C)c3cccc(C)c3)cc2)c1 [Compound 3a] | 50 | – | – | – | – |
| COc1cccc(N(C)C(=O)c2ccc(-c3ccc(C#N)cc3)s2)c1 [Compound 1i] | – | – | – | n.i. (n.i.: no inhibition, i.e., inhibition ≤10%) | – |
| COc1cccc(N(C)C(=O)c2ccc(-c3ccc(F)c(F)c3)cc2)c1 [Compound 18a, 3',4'-Difluoro-N-(3-methoxyphenyl)-N-methyl-[1,1'-biphenyl]-4-carboxamide] | – | 31 | < 10 | – | – |
| COc1ccc(-c2ccc(C(=O)N(C)c3ccc(OC)cc3)cc2)cc1 [Compound 12a, 4'-Methoxy-N-(4-methoxyphenyl)-N-methyl-[1,1'-biphenyl]-4-carboxamide] | 62 | 19 | < 10 | – | melting point: 129 to 132 °C |
| CN(C(=O)c1cccc(-c2cccc(O)c2)c1)c1cccc(O)c1 [Compound 4c] | – | – | – | n.i. (n.i.: no inhibition, i.e., inhibition ≤10%) | – |
| COc1cccc(N(C)C(=O)c2ccc(-c3cccc(N(C)C)c3)cc2)c1 [Compound 15a, 3'-(Dimethylamino)-N-(3-methoxyphenyl)-N-methyl-[1,1'-biphenyl]-4-carboxamide] | 67 | – | – | – | inhibition of m17β-HSD1 at 1 μM (m17β-HSD1): None of the tested compounds showed any inhibition; IC50 (h17β-HSD2): 650 nM; s.f. (selectivity factor) = IC50(17β-HSD1)/IC50(17β-HSD2) (h17β-HSD2): 8; IC50 (h17β-HSD1): 5 µM |
| Cc1cccc(-c2ccc(C(=O)N(C)c3cccc(C)c3)s2)c1 [Compound 1b] | – | – | – | 42% | – |

Source: paper PMC4521925, “17β-Hydroxysteroid Dehydrogenase Type 2 Inhibition: Discovery of Selective and Metabolically Stable Compounds Inhibiting Both the Human Enzyme and Its Murine Ortholog” (PLoS ONE, 2015)
